Among the data in patent US20240343704A1, “HALO-SUBSTITUTED AMINO PYRIDINE COMPOUNDS AS INHIBITORS OF THE HAEMATOPOIETIC PROGENITOR KINASE 1 (HPK1)” (priority 2021, published 2024) are IC50 values, retold here.

Assay [1] addresses T1, Recombinant (1-346) HPK1 (h) (Homo sapiens, UniProt Q92918).
T1 construct: Recombinant (1-346) HPK1 (h) is incubated with 8 mM MOPS pH 7.0
T1 sequence (Q92918 1-346): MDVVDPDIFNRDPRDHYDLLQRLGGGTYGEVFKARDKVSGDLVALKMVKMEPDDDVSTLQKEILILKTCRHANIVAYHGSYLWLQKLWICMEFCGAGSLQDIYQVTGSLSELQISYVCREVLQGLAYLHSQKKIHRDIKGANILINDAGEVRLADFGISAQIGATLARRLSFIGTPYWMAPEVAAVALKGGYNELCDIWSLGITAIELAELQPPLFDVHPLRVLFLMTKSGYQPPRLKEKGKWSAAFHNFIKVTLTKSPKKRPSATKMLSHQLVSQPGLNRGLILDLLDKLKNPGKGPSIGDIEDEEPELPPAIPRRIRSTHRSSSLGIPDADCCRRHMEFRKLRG
As to the kind of experiment: HPK1 Human STE Kinase Enzymatic Radiometric Assay. It is filed as biochemical. Particulars: read-out: HPK1 IC50 nM Range*. As to the method:
A stock solution of 10 mM of test compound is prepared in DMSO. The compound plate was prepared by 3-fold and 9-point serial dilutions. […] The reaction is initiated by The addition of the Mg/ATP mix. After incubation for 40 minutes at RT, the reaction is stopped by the addition of phosphoric acid to a concentration of 0.5%.

A further assay has as its target Lck (h) (Homo sapiens, UniProt P06239). Briefly: Lck Human  Kinase Enzymatic Radiometric Assay. The following applies: read-out: Lck IC50 nM Range*. Format: biochemical. Summed up: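 Substrate 33P-incorporation measured by scintillation counting after spotting on P30 filtermat and phosphoric acid washes. Human Lck reacted 40 min at RT in 50 mM Tris pH 7.5 with 10 mM MgAcetate, [gamma-33P]-ATP, 250 uM Cdc2 peptide, 0.1 mM EGTA and 0.1 mM Na3VO4.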

Lck (h), sequence (P06239 whole entry): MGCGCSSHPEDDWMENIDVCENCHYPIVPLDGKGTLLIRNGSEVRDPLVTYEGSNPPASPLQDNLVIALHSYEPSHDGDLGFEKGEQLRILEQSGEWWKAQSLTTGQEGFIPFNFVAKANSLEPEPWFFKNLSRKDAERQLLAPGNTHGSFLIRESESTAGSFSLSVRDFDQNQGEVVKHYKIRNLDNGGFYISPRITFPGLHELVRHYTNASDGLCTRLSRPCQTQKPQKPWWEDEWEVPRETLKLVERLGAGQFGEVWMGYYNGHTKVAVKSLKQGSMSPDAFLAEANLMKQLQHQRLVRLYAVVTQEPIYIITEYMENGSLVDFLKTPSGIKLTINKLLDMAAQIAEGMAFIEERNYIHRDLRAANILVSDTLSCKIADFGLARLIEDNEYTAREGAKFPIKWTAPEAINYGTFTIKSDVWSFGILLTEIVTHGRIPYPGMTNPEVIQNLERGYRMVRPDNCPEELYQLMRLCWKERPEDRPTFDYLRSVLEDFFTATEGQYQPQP

In general, IC50 refers to the point on the concentration scale where inhibition reaches its midpoint. With `COC1CCN(Cc2cc(-c3cc(-c4cc5c(cc4F)C(=O)NCC5)c(N)nc3F)ccc2N2CCOCC2)C1` (centres unmarked) [I-543, 6-(2-amino-6-fluoro-5-(3-((3-methoxypyrrolidin-1-yl)methyl)-4-morpholinophenyl)pyridin-3-yl)-7-fluoro-3,4-dihydroisoquinolin-1(2H)-one], the values for the IC50 (in assay [1]; at Lck (h)) were 0.1 to 10 nM and 11 to 100 nM, respectively.
With `CCN1CC=C(c2ccc(-c3cc(-c4ccc5c(c4)CCNC5=O)c(N)nc3F)cc2)C1` [I-120, 6-(2-amino-5-(4-(1-ethyl-2,5-dihydro-1H-pyrrol-3-yl)phenyl)-6-fluoropyridin-3-yl)-3,4-dihydroisoquinolin-1(2H)-one], the results for the IC50 (in assay [1]; at Lck (h)) were 0.1 to 10 nM and greater than 1000 nM, respectively.
In the same order, the values of `COc1cc(-c2cc(-c3ccc4c(c3)CCNC4=O)c(N)nc2F)ccc1OC1CCNCC1` [I-151, 6-(2-amino-6-fluoro-5-(3-methoxy-4-(piperidin-4-yloxy)phenyl)pyridin-3-yl)-3,4-dihydroisoquinolin-1(2H)-one] are 11 to 100 nM and greater than 1000 nM.
For `Nc1nc(F)c(-c2ccc3c(c2)OCCCO3)cc1-c1cc2c(cc1F)C(=O)NCC2` [I-205, 6-(2-amino-5-(3,4-dihydro-2H-benzo[b][1,4]dioxepin-7-yl)-6-fluoropyridin-3-yl)-7-fluoro-3,4-dihydroisoquinolin-1(2H)-one] the same measures were 0.1 to 10 nM and greater than 1000 nM.
In the same order, the values of `Nc1nc(F)c(-c2ccc(N3CCCC3)cc2)cc1-c1ccc2c(c1)CCNC2=O` [I-59, 6-(2-amino-6-fluoro-5-(4-(pyrrolidin-1-yl)phenyl)pyridin-3-yl)-3,4-dihydroisoquinolin-1(2H)-one] are 11 to 100 nM and greater than 1000 nM.
Regarding `Cc1c[nH]c(=O)c2ccc(-c3cc(-c4ccc(C5CCOCC5)c(CN(C)C)c4)c(F)nc3N)cc12` [I-426, 6-(2-amino-5-(3-((dimethylamino)methyl)-4-(tetrahydro-2H-pyran-4-yl)phenyl)-6-fluoropyridin-3-yl)-4-methylisoquinolin-1(2H)-one], the IC50 was 0.1 to 10 nM in assay [1] and greater than 1000 nM on Lck (h).
Consider `Nc1nc(F)c(-c2ccc(C3=CCN(C4COC4)CC3)cc2)cc1-c1ccc2c(c1)CCNC2=O` [I-155, 6-(2-amino-6-fluoro-5-(4-(1-(oxetan-3-yl)-1,2,3,6-tetrahydropyridin-4-yl)phenyl)pyridin-3-yl)-3,4-dihydroisoquinolin-1(2H)-one], for which the IC50 in assay [1] was 0.1 to 10 nM; at Lck (h) it was greater than 1000 nM.
In the same order, the values of `COc1cc(OC2CCN(C(C)C)CC2)ccc1-c1cc(-c2ccc3c(c2)CCNC3=O)c(N)nc1F` [I-272, 6-(2-amino-6-fluoro-5-(4-((1-isopropylpiperidin-4-yl)oxy)-2-methoxyphenyl)pyridin-3-yl)-3,4-dihydroisoquinolin-1(2H)-one] are 0.1 to 10 nM and greater than 1000 nM.
In the same order, the values of `Nc1nc(F)c(-c2ccc(S(=O)(=O)C3CNC3)cc2)cc1-c1ccc2c(c1)CCNC2=O` [I-84, 6-(2-amino-5-(4-(azetidin-3-ylsulfonyl)phenyl)-6-fluoropyridin-3-yl)-3,4-dihydroisoquinolin-1(2H)-one] are 11 to 100 nM and greater than 1000 nM.
On to `Nc1nc(F)c(-c2ccc(C3=CCN(CCO)CC3)cc2)cc1-c1ccc2c(c1)CCNC2=O` [I-138, 6-(2-amino-6-fluoro-5-(4-(1-(2-hydroxyethyl)-1,2,3,6-tetrahydropyridin-4-yl)phenyl)pyridin-3-yl)-3,4-dihydroisoquinolin-1(2H)-one], for which the figures for the IC50 (in assay [1]; at Lck (h)) were 0.1 to 10 nM and greater than 1000 nM, respectively.
Turning to `CC(C)N1CCN(c2ccc(-c3cc(-c4ccc5c(c4)CCNC5=O)c(N)nc3F)cc2)CC1C` (centres unmarked) [I-278, 6-(2-amino-6-fluoro-5-(4-(4-isopropyl-3-methylpiperazin-1-yl)phenyl)pyridin-3-yl)-3,4-dihydroisoquinolin-1(2H)-one], the results for the IC50 (in assay [1]; at Lck (h)) were 0.1 to 10 nM and greater than 1000 nM, respectively.
For the compound `CC(C)N1CCC2(CC1)OCc1cc(-c3cc(-c4ccc5c(c4)CCNC5=O)c(N)nc3F)ccc1O2` [I-218, 6-(2-amino-6-fluoro-5-(1′-isopropyl-4H-spiro[benzo[d][1,3]dioxine-2,4′-piperidin]-6-yl)pyridin-3-yl)-3,4-dihydroisoquinolin-1(2H)-one], the figures for the IC50 (in assay [1]; at Lck (h)) were 0.1 to 10 nM and greater than 1000 nM, respectively.
In the same order, the values of `Nc1nc(F)c(-c2ccc(O[C@@H]3CCCNC3)cc2)cc1-c1cc2c(cc1F)C(=O)NCC2` [I-180, (R)-6-(2-amino-6-fluoro-5-(4-(piperidin-3-yloxy)phenyl)pyridin-3-yl)-7-fluoro-3,4-dihydroisoquinolin-1(2H)-one] are 11 to 100 nM and greater than 1000 nM.
Turning to `CN1CCC(Oc2ccc(-c3cc(-c4ccc5c(c4)CCNC5=O)c(N)nc3F)cc2)CC1` [I-44, 6-(2-amino-6-fluoro-5-(4-((1-methylpiperidin-4-yl)oxy)phenyl)pyridin-3-yl)-3,4-dihydroisoquinolin-1(2H)-one], the IC50 in assay [1] was 0.1 to 10 nM; at Lck (h), greater than 1000 nM.
In the same order, the values of `Nc1nc(F)c(-c2ccc(C3CCCCN3CC(F)F)cc2)cc1-c1ccc2c(c1)CCNC2=O` (centres unmarked) [I-101, 6-(2-amino-5-(4-(1-(2,2-difluoroethyl)piperidin-2-yl)phenyl)-6-fluoropyridin-3-yl)-3,4-dihydroisoquinolin-1(2H)-one] are 11 to 100 nM and greater than 1000 nM.
On to `Nc1nc(F)c(-c2ccc(C3CN(CC(F)F)CCO3)cc2)cc1-c1ccc2c(c1)CCNC2=O` (centres unmarked) [I-103, 6-(2-amino-5-(4-(4-(2,2-difluoroethyl)morpholin-2-yl)phenyl)-6-fluoropyridin-3-yl)-3,4-dihydroisoquinolin-1(2H)-one], for which the IC50 in assay [1] is 11 to 100 nM; at Lck (h) it was greater than 1000 nM.
In the same order, the values of `Cc1nc2cc(-c3cc(-c4ccc(N5CCN(C(C)C)CC5)cc4)c(F)nc3N)cc(F)c2c(=O)[nH]1` [I-414, 7-(2-amino-6-fluoro-5-(4-(4-isopropylpiperazin-1-yl)phenyl)pyridin-3-yl)-5-fluoro-2-methylquinazolin-4(3H)-one] are 0.1 to 10 nM and greater than 1000 nM.
For `CN(C)Cc1nc(-c2cc(-c3cc4c(cc3F)C(=O)NCC4)c(N)nc2F)ccc1N1CCOCC1` [I-427, 6-(6′-amino-6-((dimethylamino)methyl)-2′-fluoro-5-morpholino-[2,3-bipyridin]-5′-yl)-7-fluoro-3,4-dihydroisaoquinolin-1(2H)-one] the same measures were 0.1 to 10 nM and greater than 1000 nM.
Regarding `CN1[C@@H]2CC[C@H]1CN(c1ccc(-c3cc(-c4ccc5c(c4)CCNC5=O)c(N)nc3F)cc1)C2` [I-13, 6-(2-amino-6-fluoro-5-(4-((1R,5S)-8-methyl-3,8-diazabicyclo[3.2.1]octan-3-yl)phenyl)pyridin-3-yl)-3,4-dihydroisoquinolin-1(2H)-one], the results for the IC50 (in assay [1]; at Lck (h)) were 0.1 to 10 nM and 101 to 1000 nM, respectively.
With `Nc1nc(F)c(-c2ccc(OC3CN(C4COC4)C3)cc2)cc1-c1ccc2c(c1)CCNC2=O` [I-318, 6-(2-amino-6-fluoro-5-(4-((1-(oxetan-3-yl)azetidin-3-yl)oxy)phenyl)pyridin-3-yl)-3,4-dihydroisoquinolin-1(2H)-one], the IC50 is 11 to 100 nM in assay [1] and greater than 1000 nM at Lck (h).
For `COCCN1CCN(c2ccc(-c3cc(-c4cc5c(cc4F)C(=O)NCC5)c(N)nc3F)cc2C(F)(F)F)CC1` [I-264, 6-(2-amino-6-fluoro-5-(4-(4-(2-methoxyethyl)piperazin-1-yl)-3-(trifluoromethyl)phenyl)pyridin-3-yl)-7-fluoro-3,4-dihydroisoquinolin-1(2H)-one] the same measures were 0.1 to 10 nM and greater than 1000 nM.
For `CC(C)[C@H]1CN(c2ccc(-c3cc(-c4ccc5c(c4)CCNC5=O)c(N)nc3F)cc2)CCN1C` [I-50, (S)-6-(2-amino-6-fluoro-5-(4-(3-isopropyl-4-methylpiperazin-1-yl)phenyl)pyridin-3-yl)-3,4-dihydroisoquinolin-1(2H)-one] the same measures were 0.1 to 10 nM and greater than 1000 nM.
Consider `CCN1CCN(c2ccc(-c3cc(-c4ccc5c(c4)CCNC5=O)c(N)nc3F)cc2)CC1` [I-41, 6-(2-amino-5-(4-(4-ethylpiperazin-1-yl)phenyl)-6-fluoropyridin-3-yl)-3,4-dihydroisoquinolin-1(2H)-one], for which the IC50 in assay [1] is 0.1 to 10 nM; at Lck (h), greater than 1000 nM.
Regarding `CC(C)N1CCC2(CCc3cc(-c4cc(-c5ccc6c(c5)CCNC6=O)c(N)nc4F)ccc3O2)CC1` [I-223, 6-(2-amino-6-fluoro-5-(1′-isopropylspiro[chromane-2,4′-piperidin]-6-yl)pyridin-3-yl)-3,4-dihydroisoquinolin-1(2H)-one], the IC50 in assay [1] is 0.1 to 10 nM; on Lck (h), greater than 1000 nM.
For `CC(C)N1C[C@H]2C[C@@]2(c2ccc(-c3cc(-c4ccc5c(c4)CCNC5=O)c(N)nc3F)cc2)C1` [I-110, 6-(2-amino-6-fluoro-5-(4-((1R,5S)-3-isopropyl-3-azabicyclo[3.1.0]hexan-1-yl)phenyl)pyridin-3-yl)-3,4-dihydroisoquinolin-1(2H)-one], the IC50 in assay [1] is 0.1 to 10 nM; on Lck (h), greater than 1000 nM.
